# Reference: ChEMBL document CHEMBL1201862, “PubChem BioAssay data set” (2004)
#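 Values below derive from 48-hour exposures of cells grown in 96-well plates, with endpoints linearly interpolated between the two concentrations bracketing the appropriate inhibition level. GI50 is the concentration that inhibits growth by half.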 Active and inactive are the calls of the source. No stated cut-off is given here; in the data, active = GI50 up to about 1.1 µM and inactive = higher.
# Tests used:
# Assay in all cases: NCI-60 cell line screen, 48 h
# [1] = test system: HOP-62
# [2] = test system: HOP-92
# [3] = test system: NCI/ADR-RES
# [4] = test system: COLO 205
# [5] = test system: ACHN
# [6] = test system: TK-10
# [7] = test system: KM12
# [8] = test system: U-251
# [9] = test system: HT-29
# [10] = test system: M14
# [11] = test system: SK-OV-3
# [12] = test system: Hs-578T
# [13] = test system: OVCAR-4
# [14] = test system: MDA-MB-231
# [15] = test system: SW-620
# [16] = test system: SNB-75
# [17] = test system: SF-268
# [18] = test system: UACC-257
# [19] = test system: LOX IMVI
# [20] = test system: A498
SMILES,GI50 [1],GI50 [2],GI50 [3],GI50 [4],GI50 [5],GI50 [6],GI50 [7],GI50 [8],GI50 [9],GI50 [10],GI50 [11],GI50 [12],GI50 [13],GI50 [14],GI50 [15],GI50 [16],GI50 [17],GI50 [18],GI50 [19],GI50 [20]
Cc1nnc2sc(Cc3cnc(N)s3)nn12,> 100 µM (inactive),> 100 µM (inactive),> 100 µM (inactive),> 100 µM (inactive),> 100 µM (inactive),> 100 µM (inactive),> 100 µM (inactive),> 100 µM (inactive),> 100 µM (inactive),> 100 µM (inactive),> 100 µM (inactive),> 100 µM (inactive),> 100 µM (inactive),> 100 µM (inactive),> 100 µM (inactive),> 100 µM (inactive),> 100 µM (inactive),> 100 µM (inactive),,
Cc1nn(C(=O)Cc2ccccc2)c2c1C(c1ccccc1)SC(=N)N2 (centres undefined),> 100 µM (inactive),,,> 100 µM (inactive),> 100 µM (inactive),> 100 µM (inactive),> 100 µM (inactive),,> 100 µM (inactive),> 100 µM (inactive),> 100 µM (inactive),> 100 µM (inactive),,> 100 µM (inactive),> 100 µM (inactive),43.5 µM (inactive),> 100 µM (inactive),> 100 µM (inactive),> 100 µM (inactive),> 100 µM (inactive)
Cc1cc(C)c2c(c1)C(=O)/C(=C/c1ccccc1C(=O)O)C2,67.5 µM (inactive),> 100 µM (inactive),,,> 100 µM (inactive),> 100 µM (inactive),94.6 µM (inactive),35.7 µM (inactive),59 µM (inactive),90.4 µM (inactive),,> 100 µM (inactive),45.1 µM (inactive),50.2 µM (inactive),84.3 µM (inactive),40 µM (inactive),61.7 µM (inactive),> 100 µM (inactive),71.9 µM (inactive),67 µM (inactive)
C=C(C)[C@@H]1CCc2c(c(C)cc(O)c(=O)c2O)C1,,0.573 µM (active),0.583 µM (active),1.63 µM (inactive),1.18 µM (inactive),13.1 µM (inactive),3.03 µM (inactive),1.3 µM (inactive),3.01 µM (inactive),1.47 µM (inactive),1.49 µM (inactive),2.16 µM (inactive),0.146 µM (active),> 52.1 µM (inactive),0.643 µM (active),3.68 µM (inactive),2.88 µM (inactive),6.81 µM (inactive),0.695 µM (active),
COc1ccc(/N=N/C(=O)NC(CC(C)C)C(=O)NC(CC(C)C)C(=O)O)cc1 (centres undefined),> 100 µM (inactive),> 100 µM (inactive),> 100 µM (inactive),21.5 µM (inactive),12.5 µM (inactive),> 100 µM (inactive),43.8 µM (inactive),> 100 µM (inactive),> 100 µM (inactive),29.9 µM (inactive),,> 100 µM (inactive),> 100 µM (inactive),,67 µM (inactive),> 100 µM (inactive),16.9 µM (inactive),7.98 µM (inactive),> 100 µM (inactive),> 100 µM (inactive)
COc1ccc(/C=C2\CCC(C)c3c2nc(N)c(C#N)c3-c2ccc(OC)c(OC)c2)cc1OC (centres undefined),2.05 µM (inactive),,6.73 µM (inactive),6.56 µM (inactive),15.7 µM (inactive),10.8 µM (inactive),7.6 µM (inactive),9.44 µM (inactive),6.25 µM (inactive),32.3 µM (inactive),18.5 µM (inactive),9.16 µM (inactive),,9.89 µM (inactive),> 100 µM (inactive),,52.7 µM (inactive),1.96 µM (inactive),66.4 µM (inactive),
CN1C(=O)[C@](C)(Cc2ccc(F)cc2)N(C(=O)OC(C)(C)C)[C@@H]1C(C)(C)C,40.7 µM (inactive),30.7 µM (inactive),20.4 µM (inactive),19.5 µM (inactive),37.7 µM (inactive),80.9 µM (inactive),30.5 µM (inactive),29.6 µM (inactive),22.1 µM (inactive),41.6 µM (inactive),43.9 µM (inactive),,43.1 µM (inactive),38.1 µM (inactive),37.3 µM (inactive),29.2 µM (inactive),55.3 µM (inactive),30.5 µM (inactive),21.6 µM (inactive),23.4 µM (inactive)
COC1C=C(Nc2cccc(Cl)c2)C(=O)C1 (centres undefined),> 100 µM (inactive),39.5 µM (inactive),,10.4 µM (inactive),60 µM (inactive),> 100 µM (inactive),71 µM (inactive),32.3 µM (inactive),65.3 µM (inactive),> 100 µM (inactive),48.8 µM (inactive),,> 100 µM (inactive),,53.2 µM (inactive),43.9 µM (inactive),45.8 µM (inactive),> 100 µM (inactive),> 100 µM (inactive),15.7 µM (inactive)
